In publication PMC9486186 (Bioactive Materials, 2022):

Test system: BCR-ABL(T315I) induced CML mice
Experiment: Survival of BCR-ABL
Type: in vivo, mouse
Conditions: BPTES 10 mg/kg monotherapy

Q: How did the “mice still alive on day 60 post BMT” value turn out when `O=C(Cc1ccccc1)Nc1nnc(CCSCCc2nnc(NC(=O)Cc3ccccc3)s2)s1` [BPTES] was run?
A: 3/9
